In assay [1] the test system is cellulase from Trichoderma longibrachiatum. The assay can be described thus: Cellulase assay: release of C1PNP/PNP (absorbance 400 nm) from substrates, with and without β-glucosidase. The following applies: 40° C., pH 4.5; for sensitivity of the assay (rate of release of C1PNP) in the presence vs absence of β-glucosidase: absorbance 400 nm vs. time, FIGS. 3a-3b. The format is biochemical. The text has this: FIGS. 3a-3b are graphs of absorbance (400 nm) vs. time, for the action of a cellulase from Trichoderma longibrachiatum on. […] In contrast, for BC1PNP-G3 (3b) the endo-acting Trichoderma cellulase cleaves the glycosidic bond either between two glucosyl units or between the bond between the terminal glucosyl unit and C1PNP releasing an end-blocked cello-oligosaccharide and a non-blocked C1PNP-cello-oligosaccharide fragment, or free C1PNP. The β-glucosidase in the assay mixture immediately hydrolyses the non-blocked C1PNP-cello-oligosaccharide released, giving D-glucose and free C1PNP.
FIG. 4 is a graph of absorbance (400 nm) vs. time, for the action of a cellulase from Trichoderma longibrachiatum (1500 milli-International Units on CMC-4M per assay) on p-nitrophenyl cellobiose (PNP-G2), 2-chloro-4-nitrophenyl cellobiose (C1PNP-G2), end-blocked p-nitrophenyl cellobiose (BPNP-G2) and end-blocked 2-chloro-4-nitrophenyl cellobiose (BC1PNP-G2) in the absence of added β-glucosidase at 40° C. and pH 4.5 using an assay of the invention (embodiment Two).
(§1) Prepare substrate solution by dissolving end-blocked p-nitrophenyl cello-oligosaccharides or end-blocked 2-Cl-4-nitrophenyl cello-oligosaccharide (DP 2, 3 or 4) in 2 mL of dimethyl sulphoxide to obtain a concentration of 12.5 mM. Cool this solution in ice and add 3 mL of 170 mM potassium chloride solution with mixing, to give a final substrate concentration of 5 mM. Prepare this solution fresh before use, or warm to 40° C. before use to ensure complete dissolution.
Add an aliquot (0.1 mL) of the substrate solution to the bottom of a 16×120 mm glass test tube, followed by 0.05 mL of pure β-glucosidase (Second embodiment only). Incubate tubes for 2 min at the selected reaction temperature and initiate the reaction by adding 0.1 mL of sample solution containing cellulase in 200 mM buffer solution of the desired pH (usually in the range of 4.5 to 8.0). […] Mix the tube contents and measure the absorbance at 400 nm against a reaction blank.

Assay [2] deals with cellulase from Aspergillus niger. The experiment in a line: Cellulase assay: release of C1PNP (absorbance 400 nm) from end-blocked substrates, with and without β-glucosidase. The format is biochemical. The following applies: 40° C., pH 4.5; absorbance 400 nm vs. time; FIGS. 2a-2b. Here is the method: FIGS. 2a-2b are graphs of absorbance (400 nm) vs. time, for the action of a cellulase from Aspergillus niger on. […] FIG. 2b shows_end-blocked 2-chloro-4-nitrophenyl cellotriose (BC1PNP-G3) (700 milli-International Units per assay) at 40° C. and pH 4.5 in the presence and the absence of β-glucosidase using an assay of the invention. […] Note: One International Unit of enzyme activity as defined is the amount of enzyme required to release one micromole of reducing sugar equivalents per minute from carboxymethyl cellulose 4M (CMC-4M) (10 mg/mL) in 100 mM sodium acetate buffer (pH 4.5).
as §1
Add an aliquot (0.1 mL) of the substrate solution to the bottom of a 16×120 mm glass test tube, followed by 0.05 mL of pure β-glucosidase (Second embodiment only). […] Mix the tube contents and measure the absorbance at 400 nm against a reaction blank.

Entries after “also recorded” stand apart in the source; their conditions may differ.

The source of these data is US20140154721A1, “Cellulase Assay” (Megazyme IP Limited, priority 2012, published 2014).

With “end-blocked p-nitrophenyl cellobiose [BPNP-G2]”, the “rate of hydrolysis by Trichoderma cellulase (comparison of substrates)” value in assay [1] (absence of added β-glucosidase, 1500 milli-International Units per assay, FIG. 4) is “slower rate than BC1PNP-G2”. Take “end-blocked 2-chloro-4-nitrophenyl cellobiose [BC1PNP-G2]”: the “sensitivity of the assay (rate of release of C1PNP) in the presence vs absence of β-glucosidase” value in assay [2] is given as “same sensitivity of the assay; also recorded: no increase in the colour formed”; in assay [1], “same sensitivity of the assay; also recorded: the same result is seen”. The like results for “end-blocked 2-chloro-4-nitrophenyl cellotriose [BC1PNP-G3]” were, in that order, “same sensitivity of the assay; also recorded: no increase in the colour formed” and “greater sensitivity of the assay in the presence of added β-glucosidase”.
